In paper PMC7285321, “Evaluation of Indolocarbazoles from Streptomyces sanyensis as a Novel Source of Therapeutic Agents against the Brain-Eating Amoeba Naegleria fowleri” (Microorganisms, 2020):
Read-outs that look alike come from different tables or passages of the source.

Tests used:
[1] = tested on: Naegleria fowleri ATCC 30808 trophozoites; test: In vitro amoebicidal activity, alamarBlue colorimetric assay, trophozoites; details: for SI (CC50/IC50): CC50 J774A.1 / IC50 N. fowleri ATCC 30808; for IC50: Naegleria fowleri
Experimental: (§1) Amoebae were grown at 37 °C in axenic conditions in 2% (w/v) bactocasitone medium (Thermo Fisher Scientific, Madrid, Spain) supplemented with 10% (v/v) foetal bovine serum (FBS), […] of penicillin G and 0,5 mg/mL of streptomycin sulphate (Sigma-Aldrich, Madrid, Spain). As required by the Spanish Government biosafety guidelines for this pathogen, amoebic strains were cultured in a biological security facility level 3 at the Instituto Universitario de Enfermedades Tropicales y Salud Pública de Canarias, Universidad de La Laguna.
(§2) The in vitro activity of the four ICZs included in this study was evaluated against trophozoites of two Naegleria fowleri type strains using a colorimetric assay. Amoebae (2 × 10^5 cells/mL) were placed in a sterile 96-well microtiter plate. Next, 50 μL of a serial dilution of each of the ICZs (in N. fowleri culture medium) was added to the plate. In all the activity assays, 2% DMSO was used to dissolve the highest dose of the molecules to prevent generation of any effects in the amoebic cells. Negative controls were also included in the assays, consisting of the addition of medium alone to the seeded trophozoites as previously described. Miltefosine and amphotericin B were used as positive controls whereas the addition of medium alone to the seeded trophozoites was considered as the negative control. Lastly, 10% of the alamarBlue® reagent was placed in each well, and plates were incubated with slight agitation for 48 h at 37 °C. After that, activity plates were evaluated with an EnSpire® Multimode Plate Reader (Perkin Elmer, Madrid, Spain) using a wavelength of 570 nm and a reference wavelength of 630 nm.
(§3) The IC90 values of the compounds were calculated using a GraphPad calculator (GraphPad Software, San Diego, CA, USA) based on the calculated IC50 and the Hill Slope (H). All experiments were performed in triplicate, and the mean values were also calculated.

[2] = tested on: Naegleria fowleri ATCC 30215 trophozoites; test: as above; assay type: cell-based; details: for IC50: ATCC30215, trophozoites, 48 h, 37 °C, mean ± SD, read-out: N. fowleri ATCC 30215 IC50
Experimental: as §1, §2, §3

[3] = Cytotoxicity assay, alamarBlue; assay type: cell-based; details: mouse, 37 °C, mean ± SD, read-out: Murine Macrophage J774.A1 CC50
Experimental: (§4) Evaluation of in vitro toxicity was carried out using the murine macrophage J774A.1 cell line (ATCC # TIB-67, LG Promochem, Barcelona, Spain) which was routinely cultured in Dulbecco’s Modified Eagle’s medium (DMEM, w/v) supplemented with 10% (v/v) FBS and 10 µg/mL of gentamicin (Sigma–Aldrich, Madrid, Spain), at 37 °C in a 5% CO2 atmosphere as previously described.
(§5) Cytotoxicity of the compounds was evaluated using toxicity assays established in our laboratory based on the evaluation of the toxicity induced in a murine macrophages J774.A1 cell line (ATCC® TIB-67™). Concisely, different concentrations of the ICZs were incubated with the cell line, and alamarBlue® reagent (10% of medium volume) was placed in each well and incubated for 24 h, at 37 °C under 5% CO2 conditions. Results were examined as described in Section 2.4.1.

[4] = tested on: Naegleria fowleri trophozoites; test: Detection of DNA/chromatin condensation, Hoechst 33342/propidium iodide double stain; assay type: cell-based; details: IC90, 24 h; similar for both strains
Source text: The double-stain apoptosis detection kit constituted by Hoechst 33342 and propidium iodide (PI) (Life Technologies, Madrid. Spain) and an EVOS FL Cell Imaging System AMF4300 (Life Technologies, Madrid, Spain) were used in these experiments as per the manufacturer’s instructions. […] The assay is able to separate three groups of cell populations: dead cells which show an intense red and low-blue fluorescence; healthy cells showing a low level of fluorescence, and cells in PCD presenting intense blue fluorescence (condensed chromatin/DNA).

[5] = tested on: Naegleria fowleri trophozoites; test: Cellular membrane damage, SYTOX Green assay; assay type: cell-based; details: IC90, 24 h; both strains
Experimental: The SYTOX Green assay (Life Technologies, Madrid, Spain) allows the detection of alterations in the permeability of the cell membrane. The SYTOX Green dye binds to DNA, showing intense green fluorescence, only if the plasmatic membrane is damaged and allows it to enter the cytoplasm. […] After 24 h, 1 μM SYTOX Green (final concentration) was added to the cell culture and incubated for 15 min. Next, cells were examined in an EVOS FL Cell Imaging System AMF4300 (Life Technologies, Madrid, Spain).

[6] = tested on: Naegleria fowleri trophozoites; test: Mitochondrial membrane potential, JC-1 assay; assay type: cell-based; details: IC90, 24 h; similar for both strains
Experimental: The evaluation of mitochondrial function disruption in STS-treated amoebae was carried out using the Celltiter-Glo® Luminescent Cell Viability Assay (Promega Biotech Ibérica, Madrid, Spain) and the JC-1 Mitochondrial Membrane Potential Detection Kit (Cayman Chemicals, Vitro SA, Madrid, Spain). The first kit detects the levels of ATP in STS-treated cells in comparison to non-treated cells.
Images were captured using an EVOS FL Cell Imaging System AMF4300 (Life Technologies, Madrid, Spain). The obtained staining pattern permitted the identification of two groups in a cellular population: live cells which would show only red fluorescence and cells presenting low mitochondrial membrane potential (undergoing PCD) which would show an intense level of green and red fluorescence.

[7] = tested on: Naegleria fowleri trophozoites; test: Intracellular ROS generation, CellROX Deep Red assay; assay type: cell-based; details: IC90, 24 h; similar for both strains
Experimental: Next, cells were exposed to 5 μM CellROX Deep Red for 30 min at 37 °C in the dark and observed after using the EVOS FL Cell Imaging System AMF4300 (Life Technologies, Madrid, Spain). The presence of intracellular ROS was shown by the detection of high red fluorescence in the cells.

[8] = tested on: murine macrophage J774A.1 cell line; test: Cytotoxicity assay, alamarBlue; assay type: cell-based; details: 24 h, 37 °C, mean ± SD; read-out: Murine Macrophage J774.A1 CC50
Experimental: as §4, §5

[9] = ATCC30808, 48 h, read-out: N. fowleri ATCC 30808 IC50

Structure (SMILES)	SI (CC50/IC50) [1]	IC50 [1, 9]	Activity against N. fowleri, in words [1]	CC50 at 24 h ([3]; J774A.1 macrophage cell line)	further results
COC(=O)C1(O)CC2OC1(C)n1c3ccccc3c3c4c(c5c6ccccc6n2c5c31)C(=O)NC4 (centres unmarked) [K252a (6), K252a]	3.2	340 ± 90 nM	–	–	IC50 ([1]; ATCC30808, read-out: Activity (IC50) N. fowleri ATCC 30808, text): 338 ± 90 nM; IC50 [2]: 120 ± 30 nM; CC50 at 24 h [3]: 1070 ± 210 nM
CN[C@@H]1C[C@H]2O[C@@](C)([C@@H]1OC)n1c3ccccc3c3c4c(c5c6ccccc6n2c5c31)C(=O)NC4 [STS (1), staurosporine]	–	–	–	–	IC90 ([2]; ATCC30215, calculated from IC50 and Hill slope, table footnote, unit inferred, read-out: IC90 N. fowleri ATCC 30215): 970 nM; Chromatin condensation (Hoechst stain) [4]: the nuclei are intense blue; Plasmatic membrane permeabilization (SYTOX Green) [5]: caused plasmatic membrane permeabilization in both strains; Mitochondrial membrane potential (JC-1) [6]: Mitochondrial potential collapse was observed; Intracellular ROS (CellROX Deep Red) [7]: Increased levels of intracellular ROS
O=C1NCc2c1c1c3ccccc3[nH]c1c1[nH]c3ccccc3c21 [K252c (8), K252c]	–	> 20000 nM	no activity was observed	–	–
O=C1NC(=O)c2c1c1c3ccccc3[nH]c1c1[nH]c3ccccc3c21 [Arcyriflavin A (9), arcyriaflavin A]	–	> 20000 nM	no activity was observed	–	–
CN[C@@H]1C[C@H]2O[C@@](C)([C@@H]1OC)n1c3ccccc3c3c4c(c5c6ccccc6n2c5c31)C(=O)NC4=O [7OSTS (2), 7-oxostaurosporine]	4.1	1280 ± 350 nM	–	–	IC50 [2]: 1070 ± 230 nM; CC50 [8]: 5200 ± 1750 nM
COC1=C(C)O[C@@H]2C[C@@]1(OC)n1c3ccccc3c3c4c(c5c6ccccc6n2c5c31)C(=O)NC4 [SCZ B (4), streptocarbazole B]	>1.7	11500 ± 310 nM	only active against the N. fowleri ATCC 30808 strain	> 20000 nM	–
CO[C@H]1[C@H](O)[C@@H](O)[C@H](n2c3c(Cl)cccc3c3c4c(c5c6cccc(Cl)c6[nH]c5c32)C(=O)NC4=O)O[C@@H]1CO [Rebeccamycin (5), rebeccamycin]	–	> 20000 nM	not active	–	–
CCCCCCCCCCCCCCCCOP(=O)([O-])OCC[N+](C)(C)C [Miltefosine, miltefosine]	3.3	–	–	128000 ± 8850 nM	–
C[C@@H]1[C@H](O)[C@@H](C)/C=C/C=C/C=C/C=C/C=C/C=C/C=C/[C@H](O[C@@H]2O[C@H](C)[C@@H](O)[C@H](N)[C@@H]2O)C[C@@H]2O[C@](O)(C[C@@H](O)C[C@@H](O)[C@H](O)CC[C@@H](O)C[C@@H](O)CC(=O)O[C@H]1C)C[C@H](O)[C@H]2C(=O)O [Amphotericin B]	≥1666.7	120 ± 30 nM	–	≥ 200000 nM	IC50 [2]: 160 ± 20 nM
CC12OC(CC1(O)C(=O)O)n1c3ccccc3c3c4c(c5c6ccccc6n2c5c31)CNC4=O (centres unmarked) [K252b (7), K252b]	–	> 20000 nM	–	–	–
CO[C@@H]1C(=O)C[C@H]2O[C@]1(C)n1c3ccccc3c3c4c(c5c6ccccc6n2c5c31)C(=O)NC4 [4′D4′OSTS (3), 4′-demethylamino-4′-oxostaurosporine]	>1.9	10800 ± 2920 nM	only active against the N. fowleri ATCC 30808 strain	> 20000 nM	–
